Data taken from US6235787A, “Hydrazine derivatives” (Hoffmann-La Roche Inc., priority 1997, dated 2001).

What was measured:
Type in all cases: cell-based
[1] = tested on: TNF-α release (THP1 cells); experiment: Test A: Inhibition of TNF-α Release (LPS-stimulated THP1 cells, ELISA); conditions: Homo sapiens, THP-1, LPS-induced TNF-α release, 3 hours, 37° C., read-out: Test A IC50 (nMol)
Protocol: Test A: Inhibition of TNF-α Release
THP1 cells were cultivated in RPMI 1640 medium supplemented with antibiotics and 10% foetal calf serum, harvested by centrifugation and diluted to 5×10^5 cells/ml in the above medium supplemented with 20 mM HEPES buffer. Aliquots ([…]) of the cell suspension were plated out on 96 well culture plates and incubated for 0.5 hour at 37° C. prior to the addition of the test compounds. The latter were dissolved in dimethyl sulphoxide (DMSO) to a stock concentration of 1.2 mM which was diluted with phosphate buffered saline/10% DMSO solution to provide test compounds in final concentrations of 10^-9 to 10^-5 M, with each concentration being tested in duplicate. The cells were incubated with the test compounds for 0.5 hour at 37° C., LPS (bacterial lipopolysaccharide) was then added to a concentration of […] and incubation was continued for 3 hours at 37° C. in an atmosphere containing 5% CO2 and at 95% relative humidity. After centrifugation at 260 g for 10 minutes an aliquot of each supernatant was removed and the amount of TNF-a was estimated by ELISA (R & D Systems Europe Ltd., Abingdon, England). The concentration of test compound which brings about 50% inhibition of LPS-induced TNF-a release (IC50) was computed from the dose-response curve.

[2] = tested on: TGF-α release (Normal human epidermal keratinocytes); experiment: Test B: Inhibition of TGF-α Release (TPA-stimulated NHEK); conditions: 24 hours, 37° C., read-out: Test B IC50 (nMol)
Protocol: Test B: Inhibition of TGF-α Release
This test is an adaptation of the method described by R. J. Coffrey, R. Derynk, J. N. Wilcox, T. S. Bringman, A. S. Goustin, H. L. Moses and M. R. Pittelkow, Nature, (1987), 328, 816-820. Normal human epidermal keratinocytes (NHEK) (neonatal and adult) were supplied by Clonetics Corporation, San Diego, Calif., USA and at the third passage were plated out on 96 well culture plates at 2×10^3 to 10^4 cells per well and grown in a humidified incubator having a 5% CO2 atmosphere at 37° C. for 5 days in serum-free keratocyte growth medium (KGM; Clonetics Corporation). Test compounds were dissolved in DMSO and then diluted 10 times in keratinocyte basal medium (KBM; Clonetics Corporation). Serial dilutions of the test compounds were made in 10% DMSO in KBM to provide concentrations 12 times higher than the final assay concentration. The test compound dilutions (or vehicle only as controls) were added to the cells and incubation was then carried out at 37° C. for 0.5 hour. TGF-a release was then stimulated by the addition of 10 ng/ml TPA (phorbol 12-myristate 13-acetate). […]

[3] = tested on: Normal human epidermal keratinocytes (NHEK); experiment: Test C: Inhibition of Keratinocyte Proliferation (3H-thymidine incorporation); conditions: 3 days, read-out: Test C IC50 (nMol)
Protocol: Test C: Inhibition of Keratinocyte Proliferation
This test is an adaptation the methods described by T. Karashima, H. Hachisuka and Y. Sasai, J. Dermatol. Sci., (1996), 12, 246-254 and A. Olaniran, B. S. Baker, J. J. Garioch, A. V. Powles and L. Fry, Arch. Dermatol. Res., (1995), 287, 231-236. Normal human epidermal keratinocytes (NHEK) (neonatal and adult) were plated out on 96 well culture plates at 2×10^3 cells per well. Following attachment of the cells to the plate by incubation for 24 hours in a humidified incubator having a 5% CO2 atmosphere at 37° C. in serum-free KGM (see above), the medium was replaced with KBM (see above) for 4 days in order to arrest the growth of the cells. Test compounds were dissolved in DMSO and then diluted 10 times in KBM. Serial dilutions of the test compounds were made in 10% DMSO in KBM to provide concentrations 11 times higher than the final assay concentration. The cells were then returned to KGM and the test compound dilutions (or vehicle only for controls) were added immediately. After incubation for 3 days the cells were pulsed with […] ^3 H-thymidine, specific activity 5 Ci/mmol (Amersham International plc, Little Chalfont, Buckinghamshire, UK), for the last 16 hours. Cells were then detached using trypsin-EDTA and harvested. ^3 H-Thymidine incorporation as a measure of proliferation was determined by scintillation counting techniques. […]

Row | Compound | IC50 [1] [nM] | IC50 [2] [nM] | IC50 [3] [nM]
1 | CC(C)C[C@@H](C(=O)NN(Cc1ccccc1)S(C)(=O)=O)[C@H](C/C=C/c1ccccc1)C(=O)NO [C, (E)-2'-Benzyl-2(R)-[1(S)-(hydroxycarbamoyl)-4-phenyl-3-butenyl]-2'-(methanesulphonyl)-4-methylvalerohydrazide] | 365 |  | 
2 | CC(C)C[C@@H](C(=O)NN(c1ccccc1)S(C)(=O)=O)[C@H](C/C=C/c1ccccc1)C(=O)NO [Compound A, (E)-2(R)-[1(S)-(Hydroxycarbamoyl)-4-phenyl-3-butenyl]-2'-(methanesulphonyl)-4-methyl-2'-phenylvalerohydrazide] | 437 | 210 | 1300
3 | COc1ccc(N(NC(=O)[C@H](CC(C)C)[C@H](C/C=C/c2ccccc2)C(=O)NO)S(C)(=O)=O)cc1 [Compound B, 1(E)-2(R)-[1(S)-(Hydroxycarbamoyl)-4-phenyl-3-butenyl]-2'-(methanesulphonyl)-2'-(4-methoxyphenyl)-4-methylvalerohydrazide] | 515 | 255 | 1100
4 | COC(=O)N(CC(C)C)NC(=O)[C@H](CC(C)C)[C@H](C/C=C/c1ccccc1)C(=O)NO [Compound I, Methyl (E)-3-[2(R)-[1(S)-(hydroxycarbamoyl)-4-phenyl-3-butenyl]-4-methylvaleryl]-2-isobutylcarbazate] | 881 |  | 
5 | CC(C)C[C@@H](C(=O)NN(CC1CCCCC1)S(C)(=O)=O)[C@H](C/C=C/c1ccccc1)C(=O)NO [D, (E)-2'-(Cyclohexylmethyl)-2(R)-[1(S)-(hydroxycarbamoyl)-4-phenyl-3-butenyl]-2'-(methanesulphonyl)-4-methylvalerohydrazide] | 408 |  | 
6 | CC(C)C[C@@H](C(=O)NN(CC(C)C)S(C)(=O)=O)[C@H](C/C=C/c1ccccc1)C(=O)NO [E, (E)-2(R)-[1(S)-(Hydroxycarbamoyl)-4-phenyl-3-butenyl]-2'-isobutyl-2'-(methanesulphonyl)-4-methylvalerohydrazide] | 531 |  | 
7 | CC(C)C[C@@H](C(=O)NN1C(=O)CCCC1=O)[C@H](C/C=C/c1ccccc1)C(=O)NO [F, (E)-2(R)-[(1S)-(Hydroxycarbamoyl)-4-phenyl-3-butenyl]-4-methyl-N-(2,6-dioxopiperidino)valeramide] | 1520 |  | 
8 | CC[C@H](C)CN(NC(=O)[C@H](CC(C)C)[C@H](C/C=C/c1ccccc1)C(=O)NO)S(C)(=O)=O [G, (E)-2(R)-[1(S)-(hydroxycarbamoyl)-4-phenyl-3-butenyl]-2'-(methanesulphonyl)-4-methyl-2'-[2(S)-methylbutyl]valerohydrazide] | 428 |  | 
9 | C=C(C)CN(NC(=O)[C@H](CC(C)C)[C@H](C/C=C/c1ccccc1)C(=O)NO)S(C)(=O)=O [H] | 381 |  | 
10 | CC(C)CC(=O)N(CC(C)C)NC(=O)[C@H](CC(C)C)[C@H](C/C=C/c1ccccc1)C(=O)NO [J, (E)-2(R)-[(S)-(Hydroxycarbamoyl)-4-phenyl-3-butenyl]-2'-(isobutyl)-2'-(isopentanoyl)-4-methylvalerohydrazide] | 933 |  | 
